The IC50 is the concentration at which inhibition is half-maximal. Read a high IC50 as lower potency.

Results on 14 molecules are retold here after US9321760B2 (Merck Patent GmbH, priority 2011, dated 2016).

For this test, the target named is P70S6K (T412E mutant) (Homo sapiens (Human), UniProt P23443, T412E). Put plainly: P70S6K enzyme assay. The conditions noted are these: 3 nM P70S6K T412E mutant, 24 μM ATP, 1 μM FITC-AHA-AKRRRLSSLRA-OH substrate peptide, 90 min at 25° C. The class given is biochemical. As for the experimental part:
The IC50 values reported for the compounds in the Experimental section were derived from the following protocol for the p70S6K enzyme assay.
P70S6K inhibitor compounds were diluted and plated in 96 well plates. A reaction mixture including the following components was then added to the compound plate to initiate the enzyme reaction; P70S6K (3 nM, T412E mutant, Millipore) was mixed with 24 μM ATP in an assay buffer containing 100 mM Hepes (pH 7.5), 5 mM MgCl2, 1 mM DTT, 0.015% Brij and 1 μM of the substrate peptide FITC-AHA-AKRRRLSSLRA-OH (derived from the S6 ribosomal protein sequence, FITC=fluorescein isothiocyanate, AHA=6-aminohexanoic acid). The reaction was incubated for 90 min at 25° C., before the addition of 10 mM EDTA to stop the reaction. The proportion of substrate and product (phosphorylated) peptide was analysed on a Caliper Life Sciences Lab Chip 3000, using a pressure of −1.4 psi, and upstream and downstream voltages of −3000 and −700 respectively. Product peaks were resolved before substrate peaks on the resulting chromatograms.

Sequence of P70S6K (T412E mutant) (P23443 whole entry T412E): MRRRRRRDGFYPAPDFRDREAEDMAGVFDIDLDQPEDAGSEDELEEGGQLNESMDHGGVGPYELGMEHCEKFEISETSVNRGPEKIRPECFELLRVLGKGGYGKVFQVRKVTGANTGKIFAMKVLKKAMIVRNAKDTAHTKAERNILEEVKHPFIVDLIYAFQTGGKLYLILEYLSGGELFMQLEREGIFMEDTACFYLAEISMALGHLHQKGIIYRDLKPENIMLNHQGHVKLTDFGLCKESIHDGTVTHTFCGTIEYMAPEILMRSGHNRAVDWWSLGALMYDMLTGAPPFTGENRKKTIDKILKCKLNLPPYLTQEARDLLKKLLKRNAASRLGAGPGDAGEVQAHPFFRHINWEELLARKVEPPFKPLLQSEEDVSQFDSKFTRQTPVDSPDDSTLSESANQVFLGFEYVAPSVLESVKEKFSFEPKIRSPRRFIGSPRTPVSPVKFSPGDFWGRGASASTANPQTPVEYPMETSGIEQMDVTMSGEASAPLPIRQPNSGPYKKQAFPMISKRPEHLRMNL

For `NCC(c1ccc(C(F)(F)F)cc1)N1CCN(c2ncnc(N)c2C2=CCCCC2)CC1` (centres unmarked) [Example 24, 6-(4-(2-amino-1-(4-(trifluoromethyl)phenyl)ethyl)piperazin-1-yl)-5-(cyclohex-1-en-1-yl)pyrimidin-4-amine], half-maximal inhibition (IC50) required 5.3 nM.

`NCC(c1ccc(C(F)(F)F)cc1)N1CCN(c2ncnc(N)c2C2=CCCC2)CC1` (centres unmarked) [Example 25, 6-(4-(2-amino-1-(4-(trifluoromethyl)phenyl)ethyl)piperazin-1-yl)-5-(cyclopent-1-en-1-yl)pyrimidin-4-amine] registered an IC50 of 3.4 nM.

`CN(C)CC(c1ccc(C(F)(F)F)cc1)N1CCN(c2ncnc(N)c2-c2ccc(C(=O)O)cc2)CC1` (centres unmarked) [Example 26, 4-(4-amino-6-(4-(2-(dimethylamino)-1-(4-(trifluoromethyl)phenyl)ethyl)piperazin-1-yl)pyrimidin-5-yl)benzoic acid] displayed an IC50 of 45 nM.

Molecule `Nc1ncnc(N2CCN(C(CN3CCC3)c3ccc(C(F)(F)F)cc3)CC2)c1-c1ccc(F)cc1` (centres unmarked) [Example 27, 6-(4-(2-(azetidin-1-yl)-1-(4-(trifluoromethyl)phenyl)ethyl)piperazin-1-yl)-5-(4-fluorophenyl)pyrimidin-4-amine] showed an IC50 of 4.2 nM.

`CN(C)CC(c1ccc(C(F)(F)F)cc1)N1CCN(c2ncnc(N)c2C2CC2)CC1` (centres unmarked) [Example 28, 5-Cyclopropyl-6-(4-(2-(dimethylamino)-1-(4-(trifluoromethyl)phenyl)ethyl)piperazin-1-yl)pyrimidin-4-amine] came in with an IC50 of 260 nM.

With `Cn1ccnc1C(c1ccccc1)N1CCN(c2ncnc(N)c2Br)CC1` (centres unmarked) [Example 29, 5-Bromo-6-{4-[(1-methyl-1H-imidazol-2-yl)-phenyl-methyl]-piperazin-1-yl}-pyrimidin-4-ylamine], the IC50 is greater than 1000 nM.

`Cn1ccnc1C(c1ccccc1)N1CCN(c2ncnc(N)c2-c2ccc(F)cc2)CC1` (centres unmarked) [Example 30, 5-(4-Fluoro-phenyl)-6-{4-[(1-methyl-1H-imidazol-2-yl)-phenyl-methyl]-piperazin-1-yl}-pyrimidin-4-ylamine] yielded an IC50 of 34.5 nM.

In turn, `COc1c(N)ncnc1N1CCN(C(CN)c2ccc(C(F)(F)F)cc2)CC1` (centres unmarked) [Example 31, 6-(4-(2-amino-1-(4-(trifluoromethyl)phenyl)ethyl)piperazin-1-yl)-5-methoxypyrimidin-4-amine] gave a 50% inhibitory concentration (IC50) of 40 nM.

`CCOc1c(N)ncnc1N1CCN(C(CN)c2ccc(C(F)(F)F)cc2)CC1` (centres unmarked) [Example 32, 6-(4-(2-amino-1-(4-(trifluoromethyl)phenyl)ethyl)piperazin-1-yl)-5-ethoxypyrimidin-4-amine]: the IC50 is 48.5 nM.

For the molecule `NCC(c1ccc(C(F)(F)F)cc1)N1CCN(c2ncnc(N)c2OCC(F)(F)F)CC1` (centres unmarked) [Example 33, 6-(4-(2-amino-1-(4-(trifluoromethyl)phenyl)ethyl)piperazin-1-yl)-5-(2,2,2-trifluoroethoxy)pyrimidin-4-amine], the midpoint of inhibition, the IC50, lay at 48.5 nM.

Molecule `NCC(c1ccc(C(F)(F)F)cc1)N1CCN(c2ncnc(N)c2OCc2ccccc2)CC1` (centres unmarked) [Example 34, 6-(4-(2-amino-1-(4-(trifluoromethyl)phenyl)ethyl)piperazin-1-yl)-5-(benzyloxy)pyrimidin-4-amine] came in with an IC50 of 57 nM.

`NCC(c1ccc(C(F)(F)F)cc1)N1CCN(c2ncnc(N)c2O)CC1` (centres unmarked) [Example 35, 4-amino-6-(4-(2-amino-1-(4-(trifluoromethyl)phenyl)ethyl)piperazin-1-yl) pyrimidin-5-ol] registered an IC50 greater than 1000 nM.

`N#Cc1c(N)ncnc1N1CCN(C(CN)c2ccc(C(F)(F)F)cc2)CC1` (centres unmarked) [Example 36, 4-Amino-6-{4-[2-amino-1-(4-trifluoromethyl-phenyl)-ethyl]-piperazin-1-yl}-pyrimidine-5-carbonitrile]: 14 nM corresponded to half-maximal inhibition (IC50).

In turn, `NCC(c1ccc(C(F)(F)F)cc1)N1CCN(c2ncnc(N)c2-c2cc[nH]c2)CC1` (centres unmarked) [Example 37, 6-(4-(2-amino-1-(4-(trifluoromethyl)phenyl)ethyl)piperazin-1-yl)-5-(1H-pyrrol-3-yl)pyrimidin-4-amine] gave an IC50 of 5.8 nM.
